Experimental data as given in PubChem BioAssay (NCI).
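The compound was tested at five concentrations on cells cultured in 96-well plates, with a 48-hour exposure period. GI50: concentration for 50% inhibition of growth. TGI: concentration producing complete growth inhibition.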

How the values were obtained:
Assay in all cases: NCI anticancer screen, dose series, 48 h
[1] = test system: 786-0 renal
[2] = test system: A498 renal
[3] = test system: A549 NSCLC
[4] = test system: ACHN renal
[5] = test system: BT-549 breast
[6] = test system: CAKI-1 renal
[7] = test system: CCRF-CEM leukemia
[8] = test system: COLO 205 colon
[9] = test system: DU-145 prostate
[10] = test system: EKVX NSCLC
[11] = test system: HCC-2998 colon
[12] = test system: HCT-15 colon
[13] = test system: HL-60(TB) leukemia
[14] = test system: HOP-62 NSCLC
[15] = test system: HOP-92 NSCLC
[16] = test system: HS 578T breast
[17] = test system: HT29 colon
[18] = test system: IGROV1 ovarian
[19] = test system: K-562 leukemia
[20] = test system: KM12 colon
[21] = test system: LOX IMVI melanoma
[22] = test system: M14 melanoma
[23] = test system: MALME-3M melanoma
[24] = test system: MCF7 breast
[25] = test system: MDA-MB-231 breast
[26] = test system: MDA-MB-435
[27] = test system: MOLT-4 leukemia
[28] = test system: NCI-H226 lung
[29] = test system: NCI-H23 lung
[30] = test system: NCI-H522 lung
[31] = test system: NCI/ADR-RES ovarian
[32] = test system: OVCAR-3 ovarian
[33] = test system: OVCAR-4 ovarian
[34] = test system: OVCAR-5 ovarian
[35] = test system: OVCAR-8 ovarian
[36] = test system: PC-3 prostate
[37] = test system: RPMI-8226 leukemia
[38] = test system: RXF 393 renal
[39] = test system: SF-268 CNS
[40] = test system: SF-295 CNS
[41] = test system: SF-539 CNS
[42] = test system: SK-MEL-2 melanoma
[43] = test system: SK-MEL-5 melanoma
[44] = test system: SK-OV-3 ovarian
[45] = test system: SN12C renal
[46] = test system: SNB-19 CNS
[47] = test system: SNB-75 CNS
[48] = test system: SR leukemia
[49] = test system: SW-620 colon
[50] = test system: T-47D breast
[51] = test system: TK-10 renal
[52] = test system: U251 CNS
[53] = test system: UACC-257 melanoma
[54] = test system: UACC-62 melanoma
[55] = test system: UO-31 renal
[56] = test system: HCT-116 colon
[57] = test system: NCI-H460 lung
[58] = test system: SK-MEL-28 melanoma

COc1ccc(-n2c(N)c(C#N)c(C#N)c2-c2cccc([N+](=O)[O-])c2)cc1
TGI [1]: > 100 µM | TGI [2]: > 100 µM | TGI [3]: 68.7 µM | TGI [4]: > 100 µM | TGI [5]: > 100 µM | TGI [6]: > 100 µM | TGI [7]: > 100 µM | TGI [8]: > 100 µM | TGI [9]: > 100 µM | TGI [10]: > 100 µM | TGI [11]: > 100 µM | TGI [12]: > 100 µM | TGI [13]: > 100 µM | TGI [14]: > 100 µM | TGI [15]: > 100 µM | TGI [16]: > 100 µM | TGI [17]: > 100 µM | TGI [18]: > 100 µM | TGI [19]: > 100 µM | TGI [20]: > 100 µM | TGI [21]: > 100 µM | TGI [22]: > 100 µM | TGI [23]: > 100 µM | TGI [24]: > 100 µM | TGI [25]: > 100 µM | TGI [26]: > 100 µM | TGI [27]: 44.8 µM | TGI [28]: > 100 µM | TGI [29]: > 100 µM | TGI [30]: > 100 µM | TGI [31]: > 100 µM | TGI [32]: > 100 µM | TGI [33]: > 100 µM | TGI [34]: > 100 µM | TGI [35]: > 100 µM | TGI [36]: > 100 µM | TGI [37]: > 100 µM | TGI [38]: 65.1 µM | TGI [39]: > 100 µM | TGI [40]: > 100 µM | TGI [41]: > 100 µM | TGI [42]: 8.68 µM | TGI [43]: > 100 µM | TGI [44]: > 100 µM | TGI [45]: > 100 µM | TGI [46]: > 100 µM | TGI [47]: > 100 µM | TGI [48]: > 100 µM | TGI [49]: > 100 µM | TGI [50]: > 100 µM | TGI [51]: > 100 µM | TGI [52]: > 100 µM | TGI [53]: > 100 µM | TGI [54]: > 100 µM | TGI [55]: > 100 µM

O=C(c1ccccc1)c1c(C(F)(F)F)n([O-])c2ccc(F)cc2[n+]1=O
GI50 [1]: 1.24 µM | TGI [1]: 2.52 µM | GI50 [2]: 2.38 µM | TGI [2]: 6.04 µM | GI50 [3]: 0.749 µM | TGI [3]: 2.97 µM | GI50 [4]: 1.09 µM | TGI [4]: 2.34 µM | GI50 [5]: 0.252 µM | TGI [5]: 0.788 µM | GI50 [6]: 1.5 µM | TGI [6]: 2.85 µM | GI50 [7]: 0.349 µM | TGI [7]: > 100 µM | GI50 [8]: 0.383 µM | TGI [8]: 0.926 µM | GI50 [9]: 1.3 µM | TGI [9]: 2.57 µM | GI50 [10]: 0.992 µM | TGI [10]: 2.44 µM | GI50 [11]: 0.773 µM | TGI [11]: 1.9 µM | GI50 [56]: 0.307 µM | TGI [56]: 1.02 µM | GI50 [12]: 0.26 µM | TGI [12]: 0.758 µM | GI50 [13]: 0.188 µM | TGI [13]: 0.869 µM | GI50 [14]: 1.34 µM | TGI [14]: 2.71 µM | GI50 [15]: 0.211 µM | TGI [15]: 0.394 µM | GI50 [16]: 1.44 µM | TGI [16]: 5.08 µM | GI50 [17]: 0.502 µM | TGI [17]: 1.79 µM | GI50 [18]: 0.517 µM | TGI [18]: 1.98 µM | GI50 [19]: 0.348 µM | TGI [19]: 1.77 µM | GI50 [20]: 0.872 µM | TGI [20]: 2.47 µM | GI50 [21]: 0.167 µM | TGI [21]: 0.317 µM | GI50 [22]: 1.28 µM | TGI [22]: 2.67 µM | GI50 [23]: 1.37 µM | TGI [23]: 3.04 µM | GI50 [24]: 0.373 µM | TGI [24]: 1.67 µM | GI50 [25]: 0.662 µM | TGI [25]: 1.63 µM | GI50 [26]: 1.3 µM | TGI [26]: 2.66 µM | GI50 [27]: 0.362 µM | TGI [27]: 1.48 µM | GI50 [28]: 1.55 µM | TGI [28]: 3.02 µM | GI50 [29]: 0.98 µM | TGI [29]: 2.59 µM | GI50 [57]: 0.663 µM | TGI [57]: 2.29 µM | GI50 [30]: 0.911 µM | TGI [30]: 2.59 µM | GI50 [31]: 1.78 µM | TGI [31]: 4.81 µM | GI50 [32]: 0.501 µM | TGI [32]: 1.57 µM | GI50 [34]: 1.75 µM | TGI [34]: 4.13 µM | GI50 [36]: 0.252 µM | TGI [36]: 0.828 µM | GI50 [37]: 0.551 µM | TGI [37]: 1.93 µM | GI50 [38]: 0.434 µM | TGI [38]: 1.45 µM | GI50 [39]: 0.945 µM | TGI [39]: 2.4 µM | GI50 [40]: 1.76 µM | TGI [40]: 3.48 µM | GI50 [41]: 1.44 µM | TGI [41]: 2.88 µM | GI50 [42]: 1.47 µM | TGI [42]: 3.35 µM | GI50 [58]: 1.1 µM | TGI [58]: 2.32 µM | GI50 [43]: 0.778 µM | TGI [43]: 2.18 µM | GI50 [44]: 1.89 µM | TGI [44]: 3.39 µM | GI50 [45]: 1.02 µM | TGI [45]: 2.57 µM | GI50 [46]: 1.87 µM | TGI [46]: 4.01 µM | GI50 [47]: 1.36 µM | TGI [47]: 2.65 µM | GI50 [48]: 0.0957 µM | GI50 [49]: 0.147 µM | TGI [49]: 0.306 µM | GI50 [50]: 0.655 µM | TGI [50]: 2.51 µM | GI50 [51]: 1.63 µM | TGI [51]: 3.18 µM | GI50 [52]: 1.07 µM | TGI [52]: 2.26 µM | GI50 [53]: 1.54 µM | TGI [53]: 3.23 µM | GI50 [54]: 0.882 µM | TGI [54]: 2.18 µM | GI50 [55]: 1.38 µM | TGI [55]: 2.74 µM
